Reference: patent US20040152745A1, “Dipeptidyl peptidase IV inhibitors and methods of making and using dipeptidyl peptidase IV inhibitors” (Guilford Pharmaceuticals, Inc., priority 1999, published 2004)

Test system: organotypic spinal motor neurons
Assay: organotypic spinal motor neuron / THA neuroprotection assay
Type: cell-based, Sprague-Dawley rat
Conditions: exposure of neurons with THA alone
Procedure: Each experiment consists of two 6-well plates with 5 slices from 4 different animals per well. Media changes are performed every 3 to 4 days. Cultures are treated with THA [L(−)-threo-3-hydroxyaspartic acid; Tocris Cookson Inc., Ballwin, Mo.] at 200 μM+compound (10 μM) after one week in culture. The control is an untreated sample with 0.1% DMSO as vehicle. The THA control is a THA treated sample with 0.1% DSMO as vehicle. Two wells are used per condition. One media change with new THA and compounds is performed. The experiment is stopped 6 to 8 days following drug treatment (13-15 total days in vitro, DIV) as dictated by visual assessment of lesion, by fixation with 4% paraformaldehyde/0.1 M phosphate buffer for 30 minutes. Slices are permeabilized with 100% cold methanol for 10 minutes. Slices are transferred to staining wells. […]
Quantification of surviving neurons is performed on a Ziess Axiovert microscope. Neuronal survival is determined by observing an intact neuronal cell body with processes located ventrally of the central canal in each hemisphere. […] Each hemisphere is counted individually. The statistics can be performed with StatView software on a minimum of three different experiments per condition and significance should be determined as compared to THA control. The percent of protection can be determined from the average number of living neurons by the following equation: […]

SMILES: N[C@H](C(=O)O)[C@H](O)C(=O)O [THA, L(−)-threo-3-hydroxyaspartic acid]
- death of the neurons: 55-60%
